“And” between values parts separate entries of the source, which are not always exact repeats. Identical values can stand only once. “Also recorded” adds a separate entry of the source. Marks after values point to notes of the source that are not given here.
What was measured:
[1] = tested on: patients with advanced CHF and reduced EF; test: Trial serum and plasma biomarkers; format: in vivo, human
Experimental: Blood samples were collected in 1) morning fasting state baseline, 2) after standardized breakfast prior to intervention, 3) after 30 min infusion, 4) after 60 min infusion and 5) after 120 min infusion, 6) 30 min after completed infusion and 7) at follow-up 2-5 days later (FIG. 2). Blood was collected in ethylenediaminetetraacetic acid (EDTA) and serum tubes and immediately centrifuged and plasma and serum was aliquoted and stored in −70° C. until analysis.
Creatinine clearance was calculated according to the Cockcroft-Gault equation; ([140-age] * weight in kg*1.23)/creatinine*0.85 (if […]). Renal function was measured by creatinine and cystatin-C at Karolinska University Hospital core laboratory. NT-proBNP was analyzed by proBNPII (Roche Diagnostics, Bromma, Sweden). Plasma glucose measurements were from EDTA-containing whole venous blood tubes and analyzed with a photometric point-of-care technique, the HemoCue® Glucose 201 RT (Ängelholm, Sweden). Troponin T was analyzed in the Karolinska University Hospital core laboratory.

[2] = tested on: patients with advanced CHF and reduced EF; test: Trial safety and clinical outcomes (hypotension, arrhythmia, ischemia, symptoms, events); format: in vivo, human
Experimental: Safety outcomes included reduction in systolic blood pressure, hypotension, and symptomatic hypotension, prolongation of the QTc, ischemia, and arrhythmia during or after infusion, and clinical outcomes.
The following symptoms were assessed as yes or no prior to infusion and after 30, 60, 120 min and 30 min after infusion and at the 2-5 days follow-up; headache, dizziness, dyspnea, central chest pain, flush, sleepiness, upset stomach and other symptoms. The following signs were recorded prior to start of infusion and after lunch; rales, peripheral oedema, jugular venous distension, hepatomegaly and S3 gallop.
Hypotension was assessed in two ways: The difference in change in blood pressure between the groups was quantified, and hypotension in any one patient was defined as a drop of systolic blood pressure of >20 mm Hg or to <80 mm Hg.
The difference in change in heart rate between the groups was quantified. Bradycardia was defined as a reduction in heart rate of >15 beats per minute, to a heart rate <40 beats per minute, an increase in PQ time by >20 ms, or AV block II-III. In individual patients, tachycardia was defined as an increase in heart rate by >10 beats per minute or heart rate >110 beats per minute. Ventricular extraystoles were quantified and ventricular tachycardia was defined as non-sustained if ≥3 beats in a row up to ≤30 seconds, and sustained if >30 seconds. Supra-ventricular arrhythmia was defined as ectopic atrial tachycardia, atrial flutter or atrial fibrillation, or AV-nodal tachycardia of >3 seconds duration. Ghrelin may […] hERG channels and as such cause a prolongation of the QTc interval on the EKG, which theoretically could predispose to arrhythmia. Therefor we monitored QTc.
Ischemia was assessed in two ways: The difference in change in troponin T between the groups was quantified, and ischemia in any one patient was defined as symptoms of ECG changes consistent with ischemia, or a rise in troponin T of >50%.
Patients were followed in the medical record until 30 Apr. 2017. Outcomes were freedom from all-cause death; all cause death or HF hospitalization; all cause death or heart transplantation or left ventricular assist device, and a combination of all these.

[3] = tested on: intracellular cAMP concentration; test: cAMP measurement in cardiomyocytes (direct immunoassay kit); format: cell-based, mouse; settings: vs placebo
Experimental: The intracellular cAMP concentration was measured using the cAMP direct Immunoassay kit (Abcam ab65355). Briefly, frozen cardiomyocytes pellets from groups described above (Placebo, Ghrelin, D-Lys 3 GHS-R1a+Ghrelin) were homogenized on ice using volume of 0.1 M HCl to obtain a protein concentration of 1 mg/ml. Acetylated supernatants of samples were used for the incubation with antibodies in ELISA plates according to the kit manufacturer. Finally, the optic density absorbance at 450 nm was analyzed using a microplate reader (Biotek, Synergy 2). The concentration of cAMP was normalized, dividing the resulting readout (pmol/ml) by the total protein concentration (mg/ml) for each sample. The experiments were conducted by an operator blinded regarding the treatment of the animals.

[4] = Baseline, bracketed range in line below

CCCCCCCC(=O)OC[C@H](NC(=O)[C@H](CO)NC(=O)CN)C(=O)N[C@@H](Cc1ccccc1)C(=O)N[C@@H](CC(C)C)C(=O)N[C@@H](CO)C(=O)N1CCC[C@H]1C(=O)N[C@@H](CCC(=O)O)C(=O)N[C@@H](Cc1cnc[nH]1)C(=O)N[C@@H](CCC(N)=O)C(=O)N[C@@H](CCCNC(=N)N)C(=O)N[C@H](C(=O)N[C@@H](CCC(N)=O)C(=O)N[C@@H](CCC(N)=O)C(=O)N[C@@H](CCCNC(=N)N)C(=O)N[C@@H](CCCCN)C(=O)N[C@@H](CCC(=O)O)C(=O)N[C@@H](CO)C(=O)N[C@@H](CCCCN)C(=O)N[C@@H](CCCCN)C(=O)N1CCC[C@H]1C(=O)N1CCC[C@H]1C(=O)N[C@@H](C)C(=O)N[C@@H](CCCCN)C(=O)N[C@@H](CC(C)C)C(=O)N[C@@H](CCC(N)=O)C(=O)N1CCC[C@H]1C(=O)N[C@@H](CCCNC(=N)N)C(=O)O)C(C)C [Ghrelin]
ALAT ([1]; 2-5 days FU): 0.31 ukat/L | ASAT ([1]; 2-5 days FU): 0.42 ukat/L | Cystatin C ([1]; 2-5 days FU): 1.59 ± 0.52* mg/L | GT ([1]; 2-5 days FU): 0.83 ukat/L | Haematocrit ([1]; 2-5 days FU): 41 ± 5% | INR among non-warfarin treated ([1]; 2-5 days FU): 1.0 | INR among warfarin treated ([1]; 2-5 days FU): 2.6 | Insulin (non-fasting) ([1]; 2-5 days FU): 30 mlE/L | NT-proBNP ([1]; 2-5 days FU): 2450* ng/L | Potassium ([1]; 2-5 days FU): 4.3 ± 0.4 mmol/L | Sodium ([1]; 2-5 days FU): 138 ± 12 mmol/L | Triglycerides ([1]; 2-5 days FU): 1.6 mmol/L | Troponin T ([1]; 2-5 days FU): 31 ± 38 ng/L | White blood cell count ([1]; 2-5 days FU): 7.4 ± 2.0 109/L | hsCRP ([1]; 2-5 days FU): 3.0 mg/L | NT-proBNP ([1]; 2-5 days after infusion): remained elevated | ALAT ([1]; 30′ after infusion): 0.32 ukat/L | ASAT ([1]; 30′ after infusion): 0.43 ukat/L | Cystatin C ([1]; 30′ after infusion): 1.54 ± 0.41 mg/L | GT ([1]; 30′ after infusion): 0.82 ukat/L | NT-proBNP ([1]; 30′ after infusion): 2820 ng/L | Troponin T ([1]; 30′ after infusion): 21 ± 10 ng/L | hsCRP ([1]; 30′ after infusion): 3.5 mg/L | Cystatin C ([1]; Baseline): 1.45 ± 0.44 mg/L | Troponin T ([1]; Baseline): 21 ± 9 ng/L | ALAT ([1]; Baseline (Table 12)): 0.31 ukat/L | ASAT ([1]; Baseline (Table 12)): 0.41 ukat/L | Cystatin C ([1]; Baseline (Table 12)): 1.45 ± 10.44 mg/L | GT ([1]; Baseline (Table 12)): 0.77 ukat/L | Haematocrit ([1]; Baseline (Table 12)): 40 ± 4% | INR among non-warfarin treated ([1]; Baseline (Table 12)): 1.1 | INR among warfarin treated ([1]; Baseline (Table 12)): 2.2 | Insulin (non-fasting) ([1]; Baseline (Table 12)): 36 mlE/L | NT-proBNP ([1]; Baseline (Table 12)): 2080 ng/L | Sodium ([1]; Baseline (Table 12)): 139 ± 13 mmol/L | Triglycerides ([1]; Baseline (Table 12)): 1.4 mmol/L | Troponin T ([1]; Baseline (Table 12)): 21 ± 10 ng/L | White blood cell count ([1]; Baseline (Table 12)): 7.4 ± 1.9 109/L | hsCRP ([1]; Baseline (Table 12)): 2.7 mg/L | ALAT [1, 4]: 0.31 ukat/L | ASAT [1, 4]: 0.41 ukat/L | GT [1, 4]: 0.77 ukat/L | hsCRP [1, 4]: 2.7 mg/L | NT-proBNP ([1]; Baseline, bracketed range in lines below): 2080 ng/L | ALAT ([1]; Infusion + 30′): 0.31 ukat/L | ASAT ([1]; Infusion + 30′): 0.40 ukat/L | Cystatin C ([1]; Infusion + 30′): 1.46 ± 0.44 mg/L | GT ([1]; Infusion + 30′): 0.78 ukat/L | NT-proBNP ([1]; Infusion + 30′): 2220 ng/L | Troponin T ([1]; Infusion + 30′): 21 ± 9 ng/L | hsCRP ([1]; Infusion + 30′): 3.0 mg/L | ALAT ([1]; Infusion + 60′): 0.31 ukat/L | ASAT ([1]; Infusion + 60′): 0.44 ukat/L | Cystatin C ([1]; Infusion + 60′): 1.55 ± 0.47* mg/L | GT ([1]; Infusion + 60′): 0.79 ukat/L | NT-proBNP ([1]; Infusion + 60′): 2340* ng/L | Troponin T ([1]; Infusion + 60′): 22 ± 10 ng/L | hsCRP ([1]; Infusion + 60′): 3.0 mg/L | ALAT ([1]; Infusion + 120′): 0.31 ukat/L | ASAT ([1]; Infusion + 120′): 0.41 ukat/L | Cystatin C ([1]; Infusion + 120′): 1.57 ± 0.43* mg/L | GT ([1]; Infusion + 120′): 0.80 ukat/L | NT-proBNP ([1]; Infusion + 120′): 2630* ng/L | Troponin T ([1]; Infusion + 120′): 21 ± 10 ng/L | hsCRP ([1]; Infusion + 120′): 3.3 mg/L | Cystatin C ([1]; during infusion): increased | NT-proBNP ([1]; during infusion): increased | troponin T in the one patient with >50% increase ([2]; Baseline): 31 ng/L | patients with flush ([2]; at 60 min, vs. 0 placebo, p=0.006): 7 | troponin T in the one patient with >50% increase ([2]; at FU): 164 ng/L | incidence of hypotension ([2]; drop of systolic BP >20 mm Hg or to <80 mm Hg): no incidence of hypotension; also recorded: no events of hypotension or symptomatic hypotension | troponin T in the one patient with >50% increase ([2]; during infusion (successive samples)): 38 ng/L and 42 ng/L and 43 ng/L and 34 ng/L | patients with a >50% increase in troponin T ([2]; ghrelin group (n = 15)): One | effect on heart rate ([2]; human, in vivo): no effect | incidence of ventricular tachy or brady arrhythmias ([2]; human, in vivo): no effect | symptoms or EKG changes consistent with ischemia ([2]; human, in vivo): no symptoms or EKG changes consistent with ischemia | clinical events vs placebo ([2]; over 90 days follow-up): no differences in clinical events | cAMP concentration in cardiomyocytes [3]: reduces | cAMP concentration in cardiomyocytes ([3]; listed as ghrelin): lower compared to placebo

Reference: patent US20230346889A9, “TREATMENT OF ACUTE HEART FAILURE” (AnaCardio R&D AB, priority 2019, published 2023)
